The values below come from patent US20260274894A1, “CYCLIC POLYPEPTIDE COMPOUND AND USE THEREOF” (BIVISION PHARMACEUTICALS, INC., priority 2023, published 2026).

Numbered stars: 1 amine (or outer) side, 2 acyl side, 3 side chain; on linkers, the order of the positions; unused ones are H or OH. Bridge positions count the residues as written; N and C are the ends. Square brackets hold non-standard residues; d marks the D form. Side chains are listed from the residue outwards. Peptide text beside a SMILES is read from it. * marks the point of attachment. ξ: configuration not given here. NH(CH2)2O(CH2)2NHDOTA = O=C(O)CN1CCN(CC(=O)O)CCN(CC(=O)NCCOCCN*)CCN(CC(=O)O)CC1; X4 = O=C(O)CN1CCN(CC(=O)O)CCN(CC(=O)N2CCc3cc(C(=O)*)ccc3C2)CCN(CC(=O)O)CC1; NH(CH2)5NHDOTA = O=C(O)CN1CCN(CC(=O)O)CCN(CC(=O)NCCCCCN*)CCN(CC(=O)O)CC1; DOTA = O=C(O)CN1CCN(CC(=O)O)CCN(CC(=O)*)CCN(CC(=O)O)CC1; Azetidine3carboxylic = O=C(C1CN([*:1])C1)[*:2]; Pyridine(3,5-bisCH2) = c1ncc(C[*:2])cc1C[*:1]; mXylylene = c1cc(C[*:1])cc(C[*:2])c1; Ethylenediamine = C(CN[*:2])N[*:1]; d(β3hD) = NC(CC(=O)O)CC(=O)O; CH2CH2 = C(C[*:2])[*:1]; Dap = NC[C@H](N)C(=O)O; Hexanoyl = CCCCCC(=O)*; CO = O=C([*:1])[*:2]; ξP = O=C(O)C1CCCN1; Ava = NCCCCC(=O)O; ξC = NC(CS)C(=O)O; NHBu = CCCCN*

The target of this test is T1, FAP protein (Homo sapiens, UniProt Q12884).
T1 construct: purchased Sinobiological
T1 sequence (Q12884 1-760): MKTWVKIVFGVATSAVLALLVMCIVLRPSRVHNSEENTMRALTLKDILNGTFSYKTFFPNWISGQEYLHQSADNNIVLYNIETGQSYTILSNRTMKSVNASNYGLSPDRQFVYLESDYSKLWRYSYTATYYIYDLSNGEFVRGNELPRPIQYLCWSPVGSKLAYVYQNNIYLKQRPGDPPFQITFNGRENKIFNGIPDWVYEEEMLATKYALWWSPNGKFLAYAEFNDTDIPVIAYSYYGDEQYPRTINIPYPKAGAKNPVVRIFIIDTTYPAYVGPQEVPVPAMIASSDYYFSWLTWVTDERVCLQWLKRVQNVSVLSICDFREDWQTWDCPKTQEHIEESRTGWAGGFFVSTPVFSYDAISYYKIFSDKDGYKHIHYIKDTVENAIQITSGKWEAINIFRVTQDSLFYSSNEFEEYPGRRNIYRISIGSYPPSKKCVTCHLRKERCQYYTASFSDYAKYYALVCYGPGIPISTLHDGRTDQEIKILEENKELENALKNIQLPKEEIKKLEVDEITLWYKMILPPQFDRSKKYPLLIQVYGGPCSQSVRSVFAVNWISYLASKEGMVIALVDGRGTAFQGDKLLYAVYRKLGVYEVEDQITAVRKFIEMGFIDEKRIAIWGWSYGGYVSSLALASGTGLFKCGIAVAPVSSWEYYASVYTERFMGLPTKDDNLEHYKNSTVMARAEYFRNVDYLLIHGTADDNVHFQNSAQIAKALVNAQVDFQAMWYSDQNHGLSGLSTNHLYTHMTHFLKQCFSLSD
The test can be described thus: Biacore test of compound affinity to FAP protein. The settings on record: Biacore 8K, SA chip, 15° C., 1:1 binding model; read-out: pKD (FAP) (converted). The procedure:
The Biacore 8K (Cytiva) instrument was used to detect ligand binding of the FAP protein (Sinobiological). FAP protein was captured on the SA chip. […] The sensor surface was conditioned by injecting 1M NaCl three consecutive times in 50 mM NaOH. After each ligand injection, additional cleaning was performed using isopropanol in 1M NaCl and 50 mM NaOH (flow path 1 and 2, flow rate of 10 μL/min, injection time of 60 s). […] The analyte was run under the following conditions: analysis temperature of 15° C., analysis step=all set to LMW kinetics; cycle type=single cycle (contact time of 90 s, dissociation time of 1800 s, flow rate of 30 μL/min, flow channels 1 and 2); channel detection=2-1. Data was evaluated using the Biacore Insight Evaluation Software, and the data were fitted to a 1:1 binding model. The Biacore results are shown in Table 2 below: pKD=−Log KD, where KD is the binding affinity of the compound to the FAP protein as measured by Biacore.
(SPR reads the build-up and loss of mass on a sensor chip optically.)
In the case of `CCCCNC(=O)N[C@H]1CSCc2cccc(c2)CSCC(C(=O)N[C@@H](CCC(=O)NCCNC(=O)c2ccc3c(c2)CCN(C(=O)CN2CCN(CC(=O)O)CCN(CC(=O)O)CCN(CC(=O)O)CC2)C3)C(=O)O)NC(=O)[C@H](Cc2ccccc2)NC(=O)[C@H](CCC(N)=O)NC(=O)[C@H]([C@@H](C)O)NC(=O)C2CCCN2C(=O)C2CN(C2)C1=O` (stereo partly drawn) [JHDC26, nBu-urea-[Cys(3MeBn)-hhy39-Pro-Thr-Gln-Phe-Cys]-Glu-(EDA-hhy02-DOTA)-OH] ({NHBu-CO}-C[Azetidine3carboxylic][ξP]TQF[ξC]E([Ethylenediamine-X4])-OH; linker 1-7 via mXylylene), the Kd is 10 to 100 nM.
Turning to `CCCCCC(=O)N[C@H]1CSCCSCC(C(=O)N[C@@H](CCC(=O)NCCOCCNC(=O)CN2CCN(CC(=O)O)CCN(CC(=O)O)CCN(CC(=O)O)CC2)C(=O)O)NC(=O)[C@H](Cc2ccccc2)NC(=O)[C@H](CCC(N)=O)NC(=O)[C@H]([C@@H](C)O)NC(=O)C2CCCN2C(=O)C2CN(C2)C1=O` (stereo partly drawn) [JHDC27, Hex[Cys(ethylene)-hhy39-Pro-Thr-Gln-Phe-Cys]-Glu-(DAPEG2-DOTA)-OH] (Hexanoyl-C[Azetidine3carboxylic][ξP]TQF[ξC]E(NH(CH2)2O(CH2)2NHDOTA)-OH; linker 1-7 via CH2CH2), the Kd is 10 to 100 nM.
In the case of `CCCCNC(=O)N[C@H]1CSCc2cccc(c2)CSCC(C(=O)N[C@@H](CCC(=O)NCCCCCNC(=O)CN2CCN(CC(=O)O)CCN(CC(=O)O)CCN(CC(=O)O)CC2)C(=O)O)NC(=O)[C@H](Cc2ccccc2)NC(=O)[C@H](CCC(N)=O)NC(=O)[C@H]([C@@H](C)O)NC(=O)C2CCCN2C(=O)C2CN(C2)C1=O` (stereo partly drawn) [JHDC28, nBu-urea-[Cys(3MeBn)-hhy39-Pro-Thr-Gln-Phe-Cys]-Glu-(PDA-DOTA)-OH] ({NHBu-CO}-C[Azetidine3carboxylic][ξP]TQF[ξC]E(NH(CH2)5NHDOTA)-OH; linker 1-7 via mXylylene), the Kd is 10 to 100 nM.
For `CCCCCC(=O)N[C@H]1CSCc2cccc(c2)CSCC(C(=O)N[C@@H](CCC(=O)NCCCCCNC(=O)CN2CCN(CC(=O)O)CCN(CC(=O)O)CCN(CC(=O)O)CC2)C(=O)O)NC(=O)[C@H](Cc2ccccc2)NC(=O)[C@H](CCC(N)=O)NC(=O)[C@H]([C@@H](C)O)NC(=O)C2CCCN2C(=O)C2CN(C2)C1=O` (stereo partly drawn) [JHDC29, Hex[Cys(3MeBn)-hhy39-Pro-Thr-Gln-Phe-Cys]-Glu-(PDA-DOTA)-OH] (Hexanoyl-C[Azetidine3carboxylic][ξP]TQF[ξC]E(NH(CH2)5NHDOTA)-OH; linker 1-7 via mXylylene), the Kd is 10 to 100 nM.
In the case of `CCCCCC(=O)N[C@H]1CSSCC(C(=O)N[C@@H](CCC(=O)NCCOCCNC(=O)CN2CCN(CC(=O)O)CCN(CC(=O)O)CCN(CC(=O)O)CC2)C(=O)O)NC(=O)[C@H](Cc2ccccc2)NC(=O)[C@H](CCC(N)=O)NC(=O)[C@H]([C@@H](C)O)NC(=O)C2CCCN2C(=O)C2CN(C2)C1=O` (stereo partly drawn) [JHDC30, Hex[Cys(SS)-hhy39-Pro-Thr-Gln-Phe-Cys]-Glu-(DAPEG2-DOTA)-OH] (Hexanoyl-C[Azetidine3carboxylic][ξP]TQF[ξC]E(NH(CH2)2O(CH2)2NHDOTA)-OH; disulfide 1-7), the Kd was 10 to 100 nM.
As for `CCCCNC(=O)N[C@H]1CSSCC(C(=O)N[C@@H](CCC(=O)NCCOCCNC(=O)CN2CCN(CC(=O)O)CCN(CC(=O)O)CCN(CC(=O)O)CC2)C(=O)O)NC(=O)[C@H](Cc2ccccc2)NC(=O)[C@H](CCC(N)=O)NC(=O)[C@H]([C@@H](C)O)NC(=O)C2CCCN2C(=O)C2CN(C2)C1=O` (stereo partly drawn) [JHDC31, nBu-urea-[Cys(SS)-hhy39-Pro-Thr-Gln-Phe-Cys]-Glu-(DAPEG2-DOTA)-OH] ({NHBu-CO}-C[Azetidine3carboxylic][ξP]TQF[ξC]E(NH(CH2)2O(CH2)2NHDOTA)-OH; disulfide 1-7), the Kd was 10 to 100 nM.
`CCCCCC(=O)N[C@H]1CSCc2cncc(c2)CSCC(C(=O)N[C@@H](CCC(=O)NCCOCCNC(=O)CN2CCN(CC(=O)O)CCN(CC(=O)O)CCN(CC(=O)O)CC2)C(=O)O)NC(=O)[C@H](Cc2ccccc2)NC(=O)[C@H](CCC(N)=O)NC(=O)[C@H]([C@@H](C)O)NC(=O)C2CCCN2C(=O)C2CN(C2)C1=O` (stereo partly drawn) [JHDC32, Hex[Cys(3MePy)-hhy39-Pro-Thr-Gln-Phe-Cys]-Glu-(DAPEG2-DOTA)-OH] (Hexanoyl-C[Azetidine3carboxylic][ξP]TQF[ξC]E(NH(CH2)2O(CH2)2NHDOTA)-OH; linker 1-7 via Pyridine(3,5-bisCH2)): the Kd was 10 to 100 nM.
As for `CCCCNC(=O)N[C@H]1CSCc2cncc(c2)CSCC(C(=O)N[C@@H](CCC(=O)NCCOCCNC(=O)CN2CCN(CC(=O)O)CCN(CC(=O)O)CCN(CC(=O)O)CC2)C(=O)O)NC(=O)[C@H](Cc2ccccc2)NC(=O)[C@H](CCC(N)=O)NC(=O)[C@H]([C@@H](C)O)NC(=O)C2CCCN2C(=O)C2CN(C2)C1=O` (stereo partly drawn) [JHDC33, nBu-urea-[Cys(3MePy)-hhy39-Pro-Thr-Gln-Phe-Cys]-Glu-(DAPEG2-DOTA)-OH] ({NHBu-CO}-C[Azetidine3carboxylic][ξP]TQF[ξC]E(NH(CH2)2O(CH2)2NHDOTA)-OH; linker 1-7 via Pyridine(3,5-bisCH2)), the Kd was 10 to 100 nM.
`CCCCNC(=O)N[C@H]1CSCc2cccc(c2)CSCC(C(=O)N[C@H](CC(=O)O)CC(=O)NCCOCCNC(=O)CN2CCN(CC(=O)O)CCN(CC(=O)O)CCN(CC(=O)O)CC2)NC(=O)[C@H](Cc2ccccc2)NC(=O)[C@H](CCC(N)=O)NC(=O)[C@H]([C@@H](C)O)NC(=O)C2CCCN2C(=O)C2CN(C2)C1=O` (stereo partly drawn) [JHDC34, nBu-urea-[Cys(3MeBn)-hhy39-Pro-Thr-Gln-Phe-Cys]-p-Glu-(DAPEG2-DOTA)-OH] ({NHBu-CO}-C[Azetidine3carboxylic][ξP]TQF[ξC][d(β3hD)]-{NH(CH2)2O(CH2)2NHDOTA}; linker 1-7 via mXylylene): the Kd was 10 to 100 nM.
Next, `CCCCNC(=O)N[C@H]1CSCc2cccc(c2)CSCC(C(=O)N[C@H](CC(=O)O)CC(=O)NCCNC(=O)CN2CCN(CC(=O)O)CCN(CC(=O)O)CCN(CC(=O)O)CC2)NC(=O)[C@H](Cc2ccccc2)NC(=O)[C@H](CCC(N)=O)NC(=O)[C@H]([C@@H](C)O)NC(=O)C2CCCN2C(=O)C2CN(C2)C1=O` (stereo partly drawn) [JHDC35, nBu-urea-[Cys(3MeBn)-hhy39-Pro-Thr-Gln-Phe-Cys]-p-Glu-(EDA-DOTA)-OH] ({NHBu-CO}-C[Azetidine3carboxylic][ξP]TQF[ξC][d(β3hD)]-{Ethylenediamine-DOTA}; linker 1-7 via mXylylene): 10 to 100 nM; `CCCCCC(=O)N[C@H]1CSCc2cccc(c2)CSCC(C(=O)N[C@H](CC(=O)O)CC(=O)NCCOCCNC(=O)CN2CCN(CC(=O)O)CCN(CC(=O)O)CCN(CC(=O)O)CC2)NC(=O)[C@H](Cc2ccccc2)NC(=O)[C@H](CCC(N)=O)NC(=O)[C@H]([C@@H](C)O)NC(=O)C2CCCN2C(=O)C2CN(C2)C1=O` (stereo partly drawn) [JHDC36, Hex-[Cys(3MeBn)-hhy39-Pro-Thr-Gln-Phe-Cys]-β-Glu-(DAPEG2-DOTA)-OH] (Hexanoyl-C[Azetidine3carboxylic][ξP]TQF[ξC][d(β3hD)]-{NH(CH2)2O(CH2)2NHDOTA}; linker 1-7 via mXylylene): 10 to 100 nM.
Consider `CCCCCC(=O)N[C@H]1CSCc2cccc(c2)CSCC(C(=O)N[C@@H](CNC(=O)CCCCNC(=O)CN2CCN(CC(=O)O)CCN(CC(=O)O)CCN(CC(=O)O)CC2)C(=O)O)NC(=O)[C@H](Cc2ccccc2)NC(=O)[C@H](CCC(N)=O)NC(=O)[C@H]([C@@H](C)O)NC(=O)C2CCCN2C(=O)C2CN(C2)C1=O` (stereo partly drawn) [JHDC40, Hex-[Cys(3MeBn)-hhy39-Pro-Thr-Gln-Phe-Cys]-DAPA-(APTA-DOTA)-OH] (Hexanoyl-C[Azetidine3carboxylic][ξP]TQF[ξC][Dap]([Ava-DOTA])-OH; linker 1-7 via mXylylene), for which the Kd is 10 to 100 nM.
As to `CCCCNC(=O)N[C@H]1CSCc2cccc(c2)CSCC(C(=O)N[C@@H](CNC(=O)CCCCNC(=O)CN2CCN(CC(=O)O)CCN(CC(=O)O)CCN(CC(=O)O)CC2)C(=O)O)NC(=O)[C@H](Cc2ccccc2)NC(=O)[C@H](CCC(N)=O)NC(=O)[C@H]([C@@H](C)O)NC(=O)C2CCCN2C(=O)C2CN(C2)C1=O` (stereo partly drawn) [JHDC41, nBu-urea-[Cys(3MeBn)-hhy39-Pro-Thr-Gln-Phe-Cys]-DAPA-(APTA-DOTA)-OH] ({NHBu-CO}-C[Azetidine3carboxylic][ξP]TQF[ξC][Dap]([Ava-DOTA])-OH; linker 1-7 via mXylylene), the Kd was 10 to 100 nM.
